Data from patent publication US20260263497A1, “METHOD OF TREATING SCHIZOPHRENIA AND COMPOSITION FOR USE THEREIN” (Academia Sinica, priority 2022, published 2026).

Assays:
Format in all cases: in vivo, mice (C57BL/6)
[1] = system: METH-induced hyperlocomotion in METH-naïve wild-type mice; test: METH-induced hyperlocomotor activity (METH-induced behavioral sensitization, open field); details: for effect on METH-induced hyperlocomotion activity, total travelled distance: i.p. co-injection 0.3, 1, 3 mg/kg with METH 2 mg/kg, 60 minutes, FIG. 2
Description: (§1) Animals: Male mice (C57BL/6; 2-3 months) were purchased from and maintained in the animal facility of National Taiwan University (Taipei, Taiwan) under standard condition with a 12-hr light/12-hr dark cycle. All animal experimental procedures were performed in accordance with the guidelines established by the Institutional Animal Care and Use Committee (IACUC) of the National Taiwan University and Institute of Biomedical Sciences (IBMS) at Academia Sinica (Taipei, Taiwan).
(§2) The locomotor activity: The locomotor activity was monitored and recorded using SMART 3.0 video tracking software (Panlab Harvard Apparatus, Barcelona, Spain) for 1 hour following the manufacture's protocol.
Methamphetamine (METH) is a dopamine enhancer that elevates synaptic dopamine in the brain and is frequently used to induce schizophrenia-like behaviors in mice.^6 Thus, METH-induced psychosis mice was used to evaluate the in vivo efficacy of JMF3464.
Male METH-naïve wild-type (WT) mice (3-6 months old) received intraperitoneal co-injections of JMF3464 (0.3, 1, or 3 mg/kg) and METH (2 mg/kg) immediately after establishing a 20-minute baseline for locomotor activity. The locomotor activity was recorded for 60 minutes after injection. A saline+vehicle group and a METH+vehicle group are used as control groups. In addition, under the same experimental conditions as JMF3464, the compound CGS21680 (A2A receptor agonist) with potential for treating schizophrenia was used as a comparison. The resulted data was expressed and analyzed as one-way ANOVA of total travelled distance (see FIG. 2) and two-way ANOVA of distance by 5-minute time bin (see FIGS. 3A and 3B) and.
Animals: Male mice (C57BL/6; 2-3 months) were purchased from and maintained in the animal facility of National Taiwan University (Taipei, Taiwan) under standard condition with a 12-hr light/12-hr dark cycle. All animal experimental procedures were performed in accordance with the guidelines established by the IACUC of the National Taiwan University and IBMS at Academia Sinica (Taipei, Taiwan).
Male METH-naïve wild-type (WT) mice (3-6 months old) received intraperitoneal co-injections of JMF1907 (1 mg/kg) and METH (2 mg/kg) immediately after establishing a 20-minute baseline for locomotor activity. The locomotor activity was recorded for 60 minutes after injection. In this study, a saline+vehicle (5% DMSO) group and a METH+vehicle (5% DMSO) group are used as control groups. In addition, the compound JMF3464 described above, and the compound S-(4-Nitrobenzyl)-6-thioinosine (NBTI), known as an inhibitor of equilibrative nucleoside transporter 1 (ENTi) transporter, are used as comparative examples with the same experimental conditions as JMF1907. The resulted data was expressed and analyzed as one-way ANOVA of total travelled distance (see FIG. 5) and two-way ANOVA of distance by 5-minute time bin (see FIG. 6).

[2] = system: locomotor activity of drug-naïve WT mice; test: Effect of JMF3464 alone on locomotor activity; details: single i.p. injection 0.3, 0.5, 1, 3 mg/kg
Description: as §1, §2
Male drug-naïve WT mice (3-6 months old) received a single dose JMF3464 injection (0.3, 0.5, 1, and 3 mg/kg, respectively) via intraperitoneal injection and the locomotor activity was recorded immediately after injection. A vehicle group is used as control group. The data were expressed and analyzed as one-way ANOVA of total travelled distance for 60 minutes (see FIG. 1A) and two-way ANOVA of distance by 5-minute time bin (see FIG. 1B).

METH-induced CPP in mice = test: METH-induced conditioned place preference (CPP)
Description: as §1
The METH-induced conditioned place preference (CPP) task is further performed to examine the therapeutic effect of JMF3464 on METH-induced addiction.
The METH-induced CPP procedure is shown as follows. The conditioned place preference (CPP) paradigm is a standard preclinical behavioral model used to study the rewarding and aversive effects of drugs. The paradigm usually uses a two-compartment apparatus with each compartment displaying distinct contextual characteristics (e.g., wall colors/patterns and floor texture). The CPP model consisted of three phases: pre-conditioning (baseline), conditioning, and post-conditioning (i.e., CPP test). […] Lastly, one day after the conditioning sessions, mice underwent a CPP test where they were again given free access to all compartments for 15 minutes and the time spent in the METH-paired side was measured, which provided a measure of CPP expression.

OC[C@H]1O[C@@H](n2cnc3c(NCCc4c[nH]c5ccccc45)ncnc32)C(O)C1O (some centres unmarked) [JMF1907]
improvement of METH-induced hyperactive behavior, five-minute intervals ([1]; 1 mg/kg i.p. co-injection with METH 2 mg/kg, open field 60 minutes, FIG. 6): comparable to the control group | effect on METH-induced hyperactive behavior, overall locomotion ([1]; 1 mg/kg i.p. co-injection with METH 2 mg/kg, open field 60 minutes, vehicle 5% DMSO, compared to JMF3464 and NBTI, FIG. 5): significantly improves

OC[C@H]1O[C@@H](n2cnc3c(NCc4ccc(Br)s4)ncnc32)[C@H](O)[C@@H]1O [JMF3464, N6-[(5-bromothien-2-yl)methyl]adenosine]
effect on locomotor activity ([2]; 60 minutes): dose-dependent effect | reduction of total locomotor activity ([2]; total travelled distance 60 minutes, vs vehicle): ~ 20% | effect on METH-induced locomotion activity, 5-minute time bins ([1]; 3 mg/kg i.p. co-injection with METH 2 mg/kg, vs METH+vehicle, FIGS. 3A, 3B): significantly lowered | effect on METH-induced hyperlocomotion activity, total travelled distance [1]: dose-dependently suppressed | effect on METH-induced behavioral sensitization after repeated use ([1]; repeated use, no further conditions given): no effect | inhibitory effect on METH-induced CPP (METH-induced CPP in mice; 1 mg/kg i.p. 10 minutes before each METH conditioning session, FIG. 4A): neither 1 mg/kg nor 3 mg/kg of JMF3464 exerted inhibitory effect | inhibitory effect on METH-induced CPP (METH-induced CPP in mice; 3 mg/kg i.p. 10 minutes before each METH conditioning session, FIG. 4B): neither 1 mg/kg nor 3 mg/kg of JMF3464 exerted inhibitory effect

CCNC(=O)[C@H]1O[C@@H](n2cnc3c(N)nc(NCCc4ccc(CCC(=O)O)cc4)nc32)[C@H](O)[C@@H]1O [CGS21680, reference compound]
effect on METH-induced hyperlocomotion activity, total travelled distance [1]: dose-dependently suppressed

CN[C@@H](C)Cc1ccccc1 [METH, Methamphetamine]
hyperlocomotion induced by METH ([1]; METH 2 mg/kg i.p. + vehicle vs saline+vehicle, total travelled distance 60 minutes): approximately 200%
